BindingDB's records for doi:10.1111/cbdd.12481 (University of Kwazulu-Nata, 2015)

Experiments:
[1] = target: Macrophage metalloelastase (Homo sapiens, UniProt P39900); assay: MMP12 Inhibition Assay; conditions: pH 8; 25 °C
Experimental: The synthesized compounds were assayed for the inhibitory activities against MMP-12 in 96-well microtiter plates using thiopeptolide as the substrate. MMP-12 was diluted in Assay buffer (50 mM Tris pH7.5, 0.05% Brij-35, 10 mM CaCl2, 1 mM DTNB) to a concentration of 0.007 U/µL. The MMP-12 solution (44 µL) was premixed with 1 µL of inhibitors dissolved in DMSO in a 96-well plate, and the mixture was incubated for 20 min at room temperature. Then, 5 µL of 1 mM MMP chromogenic substrate (thiopeptolide) was added to the mixture, and the reaction mixture was incubated for 30-80 min at 37 °C. Reaction was terminated by adding 7 µL of 0.2 M EDTA (pH 8.0). The intensity of the color developed by the digested substrate was measuredat 405 nm.

[2] = target: 72 kDa type IV collagenase (Homo sapiens, UniProt P08253); assay: MMP2 Inhibition Assay; conditions: pH 8.5; 25 °C
Chain of 72 kDa type IV collagenase (P08253 whole entry): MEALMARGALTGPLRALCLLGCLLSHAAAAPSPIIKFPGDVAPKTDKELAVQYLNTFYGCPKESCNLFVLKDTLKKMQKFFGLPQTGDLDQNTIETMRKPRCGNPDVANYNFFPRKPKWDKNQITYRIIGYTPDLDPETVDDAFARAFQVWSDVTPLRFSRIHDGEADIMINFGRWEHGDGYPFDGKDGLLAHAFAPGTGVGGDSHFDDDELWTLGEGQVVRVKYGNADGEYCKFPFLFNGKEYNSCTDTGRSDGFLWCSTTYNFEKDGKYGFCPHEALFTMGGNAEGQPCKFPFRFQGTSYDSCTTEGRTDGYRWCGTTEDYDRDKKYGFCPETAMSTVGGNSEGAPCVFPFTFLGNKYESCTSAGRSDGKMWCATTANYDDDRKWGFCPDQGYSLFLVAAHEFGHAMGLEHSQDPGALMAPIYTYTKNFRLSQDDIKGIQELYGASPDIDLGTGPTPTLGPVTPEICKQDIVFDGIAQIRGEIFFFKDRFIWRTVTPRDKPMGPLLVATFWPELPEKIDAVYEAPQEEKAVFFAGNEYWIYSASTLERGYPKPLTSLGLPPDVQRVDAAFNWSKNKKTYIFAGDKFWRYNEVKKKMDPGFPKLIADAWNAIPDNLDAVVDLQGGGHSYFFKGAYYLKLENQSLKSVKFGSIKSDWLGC
Experimental: The synthesized compounds were assayed for the inhibitory activities against MMP-2 in 96-well microtiter plates using succinylated gelatin as the substrate. The compound and enzyme were dissolved in sodium borate buffer (pH 8.5, 50 mM) and incubated at 37 °C for 30 min. The substrate was added and incubated at 37 °C for another 60 min. The 100% and blank groups were also carried out, in which the 100% group contained not compound and the blank group contained […]. Then, 0.03% picrylsulfonic acid solution was added and incubated at room temperature for additional 20 min. The resulting solutions were measured under 450 nm.

Chain of Macrophage metalloelastase (P39900 whole entry): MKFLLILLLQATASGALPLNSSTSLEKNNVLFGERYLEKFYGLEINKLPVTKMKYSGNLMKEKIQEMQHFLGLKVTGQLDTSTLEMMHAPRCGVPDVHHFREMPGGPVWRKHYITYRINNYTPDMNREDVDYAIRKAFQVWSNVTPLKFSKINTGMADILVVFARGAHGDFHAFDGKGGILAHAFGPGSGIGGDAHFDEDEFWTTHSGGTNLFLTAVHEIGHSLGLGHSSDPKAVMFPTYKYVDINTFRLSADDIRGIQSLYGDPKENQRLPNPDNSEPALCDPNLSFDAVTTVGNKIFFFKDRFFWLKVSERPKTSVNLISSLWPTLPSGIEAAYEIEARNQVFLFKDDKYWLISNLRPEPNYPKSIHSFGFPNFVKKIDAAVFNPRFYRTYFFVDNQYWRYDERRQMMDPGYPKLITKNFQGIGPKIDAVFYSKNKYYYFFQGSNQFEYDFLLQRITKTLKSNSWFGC

IC50 [1]	IC50 [2]	Structure (SMILES)
84.2 µM	60.3 µM	Cn1c(C(=O)NNC(=O)Nc2ccco2)cc(Br)c1Br [2-(1-Methyl-4,5-dibromo-1H-pyrrole-2-carbonyl-N-(furan-2-yl))hydrazine carboxamide (4s)]
42.1 µM	13.7 µM	O=C(NNC(=S)Nc1ccc([N+](=O)[O-])cc1)c1cc(Br)c(Br)[nH]1 [2-(4,5-Dibromo-1H-pyrrole-2-carbonyl)-N-(4-nitrophenyl)hydrazine carbothioamide (5c)]
29 µM	1.8 µM	O=C(NNC(=S)Nc1ccc(Cl)cc1)c1cc(Br)c(Br)[nH]1 [2-(4,5-Dibromo-1H-pyrrole-2-carbonyl)-N-(4-chlorophenyl)hydrazine carbothioamide (5e)]
23.8 µM	19.2 µM	COc1cc(NC(=S)NNC(=O)c2cc(Br)c(Br)n2C)cc(OC)c1OC [2-(1-Methyl-4,5-dibromo-1H-pyrrole-2-carbonyl)-N-(3,4,5-trimethoxyphenyl) hydrazine carbothioamide (5t)]
43.1 µM	8 µM	Cn1c(C(=O)NNC(=S)Nc2ccccc2F)cc(Br)c1Br [2-(1-Methyl-4,5-dibromo-1H-pyrrole-2-carbonyl)-N-(2-fluorophenyl)hydrazine carbothioamide (5n)]
